Measurements: patent US9173879B2, “Crystalline forms of (S)-7-([1,2,4]triazolo[1,5-a ]pyridin-6-yl)-4-(3,4-dichlorophenyl)-1,2,3,4-tetrahydroisoquinoline and use thereof” (Bristol-Myers Squibb Company, priority 2009, dated 2015)
Counter-ions that a name gives are not always drawn.

Columns and labels:
hSERT = hSERT (Homo sapiens (Human), UniProt P31645); assay: SERT radioligand binding assay ([125I]RTI-55, HEK-293 membranes)
Protocol: (§1) Recombinant HEK-293 cells expressing either the hSERT, hDAT, or hNET proteins were harvested from T-175 flasks as follows. The medium was removed from the flasks and the cells rinsed with HBSS without Ca and without Mg. The cells were then incubated for 5-10 minutes in 10 mM Tris-Cl, pH 7.5, 5 mM EDTA before the cells were lifted with a combination of pipetting and scraping, as needed. The cell suspension was collected into centrifuge bottles and homogenized for 30 seconds with a Polytron homogenizer. The suspension was centrifuged for 30 minutes at 32,000×g, 4° C. The supernatant was decanted and the pellet resuspended and homogenized in 50 mM Tris-Cl, pH 7.5, 1 mM EDTA for 10 seconds. The suspension was then centrifuged again for 30 minutes at 32,000×g, 4° C. The supernatant was decanted and the pellet resuspended in 50 mM Tris-Cl, pH 7.5, 1 mM EDTA and briefly homogenized. A Bradford assay (Bio-rad) was performed and the membrane preparation diluted to 2 mg/ml with 50 mM Tris-Cl, pH 7.5, 1 mM EDTA. […]
Compounds were dissolved in 100% DMSO at a concentration 100 times the desired highest assay concentration, serially diluted 1:3 in 100% DMSO, and 0.4 μl/well of each solution was dispensed to a Nunc polypropylene, round bottom, 384-well plate. […] The plates were air-dried overnight, 12 μl/well of MicroScint scintillation fluid added, and the plates counted in a Trilux. […]

NET = assay: Occupancy assay, ex vivo binding in brain tissue, NET; settings: dose 1 mg/kg, time point 3 hour
Source text: (§2) The general procedure for brain tissue collection and transporter occupancy assessment is briefly described as follows. Mice were sacrificed by asphyxiation in CO2, rats by decapitation and dogs by IV injection of euthanasia solution. For mice and rats, after the brains were removed from the skull, the forebrain tissue (removal of the brainstem and cerebellum) was used for SERT, NET, and DAT occupancy assessment. In dogs, the striatum was dissected for DAT occupancy and the remaining forebrain tissue (without the striatum, brainstem, and cerebellum) was used for SERT and NET occupancy assessment. The brain tissues were frozen in chilled isopentane and stored at −80° C. until homogenization.
(§3) The brain tissues were thawed and then homogenized using a polytron homogenizer (Kinematica). Sample aliquots were frozen immediately and stored at −80° C. Protein content was measured for each sample using a Coomassie protein assay kit (Pierce).
(§4) On the day of ex vivo binding for occupancy assessment, frozen sample aliquots were thawed and needle homogenized, and 100 μg of the tissue was incubated for SERT, NET, and DAT binding under assay conditions summarized in Table 1. […] Radioligand was measured using a Wallac Microbeta liquid scintillation counter.
(§5) The specific binding was calculated by subtracting the value of the non-specific binding from that of the total binding in each sample. […]

SERT = assay: Occupancy assay, ex vivo binding in brain tissue, SERT; settings: dose 1 mg/kg, time point 3 hour
Source text: as §2, §3, §4, §5

DAT = assay: Occupancy assay, ex vivo binding in brain tissue, DAT; settings: dose 1 mg/kg, time point 3 hour
Source text: as §2, §3, §4, §5

hDAT = hDAT (Homo sapiens (Human), UniProt Q01959); assay: DAT radioligand binding assay ([125I]RTI-55, HEK-293 membranes)
Protocol: as §1, with “seconds.” for “seconds. The suspension was then centrifuged again for 30 minutes at 32,000×g, 4° C. The supernatant was decanted and the pellet resuspended in 50 mM Tris-Cl, pH 7.5, 1 mM EDTA and briefly homogenized. A Bradford assay (Bio-rad) was performed and the membrane preparation diluted to 2 mg/ml with 50 mM Tris-Cl, pH 7.5, 1 mM EDTA.”
Compounds were dissolved in 100% DMSO at a concentration 100 times the desired highest assay concentration, serially diluted 1:3 in 100% DMSO, and 0.4 μl/well of each solution was dispensed to a Nunc polypropylene, round bottom, 384-well plate. […] The plates were air-dried overnight, 12 μl/well of MicroScint scintillation fluid added, and the plates counted in a Trilux.
(§6) The raw data was normalized to percent inhibition using control wells defining 0% (DMSO only) and 100% (selective inhibitor) inhibition which were run on each plate. […] The radioligand concentration chosen for each assay corresponds to the Kd concentration determined through saturation binding analysis for each assay.

hNET = hNET (Homo sapiens (Human), UniProt P23975); assay: NET radioligand binding assay ([3H]nisoxetine, HEK-293 membranes)
Protocol: as §1, with “seconds.” for “seconds. The suspension was then centrifuged again for 30 minutes at 32,000×g, 4° C. The supernatant was decanted and the pellet resuspended in 50 mM Tris-Cl, pH 7.5, 1 mM EDTA and briefly homogenized. A Bradford assay (Bio-rad) was performed and the membrane preparation diluted to 2 mg/ml with 50 mM Tris-Cl, pH 7.5, 1 mM EDTA.”
Compounds were dissolved in 100% DMSO at a concentration 100 times the desired highest assay concentration, serially diluted 1:3 in 100% DMSO, and 1.0 μl/well of each solution was dispensed to a Nunc polypropylene, round bottom, 384-well plate. […] The plates were air-dried overnight, 12 μl/well of MicroScint scintillation fluid added, and the plates counted in a Trilux.
as §6

[1] = Mouse tail suspension assay; assay type: in vivo; settings: male Swiss Webster mice, acute administration
Protocol: Male Swiss Webster mice were housed 3-4 per cage in rooms maintained at a constant temperature (21-23° C.) and humidity (50±10%) on a 12-hour light/dark cycle. Animals had ad libitum access to water and food throughout studies. On the day of testing, they were brought into the testing room and allowed to acclimate for 1 hour. To begin testing, the tail was attached to a piece of tape which was then attached to a hook on the ceiling of a sound-attenuated chamber. Immobility was automatically recorded using the Med Associates software. Compounds were administered acutely at a fixed pretreatment interval before session.

Sequence of hNET (P23975 whole entry): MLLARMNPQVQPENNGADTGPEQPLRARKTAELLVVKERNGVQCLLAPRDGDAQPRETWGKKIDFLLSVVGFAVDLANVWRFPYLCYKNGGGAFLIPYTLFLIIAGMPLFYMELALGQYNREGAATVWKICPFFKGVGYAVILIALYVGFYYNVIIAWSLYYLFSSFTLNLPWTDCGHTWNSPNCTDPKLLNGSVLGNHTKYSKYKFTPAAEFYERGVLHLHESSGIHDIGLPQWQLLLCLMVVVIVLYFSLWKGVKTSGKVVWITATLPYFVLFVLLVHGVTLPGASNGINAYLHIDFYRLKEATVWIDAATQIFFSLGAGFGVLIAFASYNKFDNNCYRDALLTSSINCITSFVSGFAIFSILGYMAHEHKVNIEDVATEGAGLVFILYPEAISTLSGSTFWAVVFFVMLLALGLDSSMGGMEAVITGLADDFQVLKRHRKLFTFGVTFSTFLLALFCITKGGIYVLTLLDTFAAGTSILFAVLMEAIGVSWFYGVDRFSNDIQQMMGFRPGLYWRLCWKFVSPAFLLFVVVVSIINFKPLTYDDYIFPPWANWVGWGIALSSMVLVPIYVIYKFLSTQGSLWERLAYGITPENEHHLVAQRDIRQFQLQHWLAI
Sequence of hDAT (Q01959 whole entry): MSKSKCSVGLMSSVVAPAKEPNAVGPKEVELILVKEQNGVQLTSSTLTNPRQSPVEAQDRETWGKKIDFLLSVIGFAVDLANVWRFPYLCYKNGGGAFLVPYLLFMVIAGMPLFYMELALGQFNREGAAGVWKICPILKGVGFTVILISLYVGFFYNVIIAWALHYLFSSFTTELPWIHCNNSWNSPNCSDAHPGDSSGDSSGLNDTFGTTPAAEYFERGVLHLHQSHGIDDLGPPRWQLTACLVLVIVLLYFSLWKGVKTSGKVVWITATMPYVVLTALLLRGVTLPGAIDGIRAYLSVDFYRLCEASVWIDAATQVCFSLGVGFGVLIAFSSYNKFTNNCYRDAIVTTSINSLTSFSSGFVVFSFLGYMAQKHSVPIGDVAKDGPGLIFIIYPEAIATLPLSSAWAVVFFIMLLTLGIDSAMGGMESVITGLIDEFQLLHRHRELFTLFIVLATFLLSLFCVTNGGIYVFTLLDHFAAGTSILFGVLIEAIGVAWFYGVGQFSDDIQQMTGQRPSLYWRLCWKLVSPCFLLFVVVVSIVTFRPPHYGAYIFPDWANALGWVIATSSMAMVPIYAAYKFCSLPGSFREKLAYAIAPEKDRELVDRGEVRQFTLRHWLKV

Clc1ccc(C2CNCc3cc(-c4ccc5ncnn5c4)ccc32)cc1Cl (single isomer, unassigned; enantiomer 7) [Example 1 (−)-enantiomer, 7-([1,2,4]triazolo[1,5-a]pyridin-6-yl)-4-(3,4-dichlorophenyl)-1,2,3,4-tetrahydroisoquinoline]
IC50 (hSERT): 4.2 nM
NET Occupancy % (NET): 33%
SERT Occupancy % (SERT): 41%
DAT Occupancy % (DAT): 30%
IC50 (hDAT): 105 nM
IC50 (hNET): 4.8 nM

Clc1ccc(C2CNCc3cc(-c4ccc5ncnn5c4)ccc32)cc1Cl (single isomer, unassigned; (+)) [Example 1 (+)-enantiomer, (+)-7-([1,2,4]triazolo[1,5-a]pyridin-6-yl)-4-(3,4-dichlorophenyl)-1,2,3,4-tetrahydroisoquinoline, L-tartrate salt]
NET Occupancy % (NET): 11%
SERT Occupancy % (SERT): 75%
minimum effective dose in the mouse tail suspension study [1]: 10 mg/kg
DAT Occupancy % (DAT): 26%
